Patent US20200291018A1, “TAM KINASE INHIBITORS” (SYROS PHARMACEUTICALS, INC., priority 2017, published 2020)
Where a name gives a salt, the structure may show the parent alone.

Key:
[1] = target: T1, TYRO3 (Homo sapiens, UniProt Q06418); assay: TR-FRET kinase activity assay, TYRO3; type: biochemical; settings: ATP at Km, 60 minutes
T1 sequence (Q06418 41-890): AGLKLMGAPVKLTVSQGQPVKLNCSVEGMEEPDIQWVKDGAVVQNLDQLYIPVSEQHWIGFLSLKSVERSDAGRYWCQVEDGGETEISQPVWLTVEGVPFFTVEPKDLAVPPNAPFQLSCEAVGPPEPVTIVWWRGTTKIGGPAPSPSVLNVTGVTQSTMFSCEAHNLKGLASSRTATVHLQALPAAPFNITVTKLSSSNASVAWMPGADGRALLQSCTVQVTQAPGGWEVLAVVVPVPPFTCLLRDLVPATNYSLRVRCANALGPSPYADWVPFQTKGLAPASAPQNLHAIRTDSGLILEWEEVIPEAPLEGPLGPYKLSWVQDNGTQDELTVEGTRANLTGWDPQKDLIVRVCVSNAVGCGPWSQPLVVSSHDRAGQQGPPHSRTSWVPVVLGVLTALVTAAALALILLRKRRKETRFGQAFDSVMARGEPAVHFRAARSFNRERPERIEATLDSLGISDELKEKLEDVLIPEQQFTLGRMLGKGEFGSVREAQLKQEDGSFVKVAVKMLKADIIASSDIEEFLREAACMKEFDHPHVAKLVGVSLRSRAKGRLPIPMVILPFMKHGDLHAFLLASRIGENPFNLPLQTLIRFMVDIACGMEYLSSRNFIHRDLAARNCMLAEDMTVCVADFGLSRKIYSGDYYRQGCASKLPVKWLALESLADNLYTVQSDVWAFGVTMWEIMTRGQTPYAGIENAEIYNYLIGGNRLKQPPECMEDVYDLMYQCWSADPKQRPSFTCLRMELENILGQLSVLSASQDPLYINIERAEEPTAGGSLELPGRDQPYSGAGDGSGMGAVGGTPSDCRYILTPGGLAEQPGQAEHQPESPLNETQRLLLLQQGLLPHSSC
Method: (§1) IC50 values for compound inhibition of AXL, FLT3, MERTK and TYRO3 activity were determined using a TR-FRET activity assay. A peptide substrate with a fluorescent label is phosphorylated on a tyrosine by each enzyme, where the now phosphorylated product is bound by a Europium-labeled antibody specific to that phosphorylation site. The proximity between the antibody and the substrate gives a signal known as TR-FRET. As the enzyme is inhibited by compound, less phosphorylated peptide product is made, causing a decrease in overall signal.
(§2) Activity assays were performed in a 384-well, small volume, black microplates in an active enzyme volume of 10 uL and final developed volume of 20 uL. Final assay conditions are 50 mM HEPES pH 7.5, 10 mM MgCl2, 1 mM EGTA, 0.01% Brij 35 and 1 mM DTT, all at RT. Enzyme, substrate-labeled peptide and compound are mixed, and then the reaction is initiated with the addition of ATP at Km concentration for each enzyme. The reaction is allowed to run 60 minutes and then quenched with a 12.5 mM EDTA (ethylenediamine tetraacetic acid) solution. The plate is then developed with the addition of Europium-labeled antibody for a final volume of 20 uL and is then incubated for 30 minutes in darkness. Plates are read in a PHERASTAR® plate reader. Data are analyzed in GraphPad PRISM.

[2] = target: T2, FLT3 (Homo sapiens, UniProt P36888); assay: TR-FRET kinase activity assay, FLT3; type: biochemical; settings: ATP at Km, 60 minutes
T2 sequence (P36888 27-993): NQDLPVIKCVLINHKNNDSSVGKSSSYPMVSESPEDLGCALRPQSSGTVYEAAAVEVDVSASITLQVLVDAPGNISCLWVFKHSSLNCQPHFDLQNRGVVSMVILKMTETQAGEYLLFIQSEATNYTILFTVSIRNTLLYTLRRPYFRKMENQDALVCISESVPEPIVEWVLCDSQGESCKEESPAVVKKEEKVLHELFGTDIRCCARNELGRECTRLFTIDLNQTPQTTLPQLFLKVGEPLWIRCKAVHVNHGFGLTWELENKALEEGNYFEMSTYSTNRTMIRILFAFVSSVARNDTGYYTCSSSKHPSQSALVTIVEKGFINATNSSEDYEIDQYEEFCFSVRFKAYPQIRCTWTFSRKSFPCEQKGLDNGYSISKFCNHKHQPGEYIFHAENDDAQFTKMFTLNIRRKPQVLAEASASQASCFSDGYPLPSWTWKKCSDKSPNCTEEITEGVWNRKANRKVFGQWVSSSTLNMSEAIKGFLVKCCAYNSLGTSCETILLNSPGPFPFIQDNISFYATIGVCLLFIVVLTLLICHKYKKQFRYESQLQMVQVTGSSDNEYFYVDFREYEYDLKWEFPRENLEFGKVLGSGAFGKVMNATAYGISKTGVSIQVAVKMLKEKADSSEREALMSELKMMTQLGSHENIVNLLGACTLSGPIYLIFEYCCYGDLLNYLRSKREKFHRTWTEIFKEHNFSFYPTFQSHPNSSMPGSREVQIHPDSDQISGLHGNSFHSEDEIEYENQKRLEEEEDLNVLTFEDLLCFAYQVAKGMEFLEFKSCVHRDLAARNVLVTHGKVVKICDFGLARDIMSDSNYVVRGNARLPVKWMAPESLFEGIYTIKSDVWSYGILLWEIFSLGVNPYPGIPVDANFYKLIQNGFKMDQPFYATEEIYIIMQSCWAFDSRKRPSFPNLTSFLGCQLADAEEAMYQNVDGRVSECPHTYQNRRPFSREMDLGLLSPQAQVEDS
Method: as §1, §2

Row | SMILES | IC50 [1] [nM] | IC50 [2] [nM]
1 | CCCCNc1cc2c(cn1)c(OC1CCNCC1)ncc2[C@H]1CC[C@H](O)CC1 [Compound 107] | ≤ 100 | ≤ 100
2 | CCCCC[C@H](C)Nc1ncc2c(=O)n(C3CCOCC3)cc([C@H]3CC[C@H](O)CC3)c2n1 [Compound 108] | ≤ 100 | 1000 to 10000
3 | CCCCNc1cc2c(cn1)c(=O)n(C1CCNCC1)cc2[C@H]1CC[C@H](O)CC1 [Compound 109, 6-(butylamino)-4-((1r,4r)-4-hydroxycyclohexyl)-2-(piperidin-4-yl)-2,7-naphthyridin-1(2H)-one hydrochloride] | ≤ 100 | 100 to 1000
4 | CC[C@@H](C)Nc1ncc2c(OC3CCN(C)CC3)ncc([C@H]3CC[C@H](O)CC3)c2n1 [Compound 195] | > 10000 | 1000 to 10000
5 | CCC[C@@H](C)Nc1ncc2c(OC3CCNCC3)ncc([C@H]3CC[C@H](O)CC3)c2n1 [Compound 196] | ≤ 100 | 1000 to 10000
6 | Cc1cccc(Nc2ncc3c(OC4CCNCC4)ncc([C@H]4CC[C@H](O)CC4)c3n2)c1 [Compound 197] | ≤ 100 | 100 to 1000
7 | Cc1cc(Cl)ccc1Nc1ncc2c(OC3CCNCC3)ncc([C@H]3CC[C@H](O)CC3)c2n1 [Compound 198] | ≤ 100 | 100 to 1000
8 | CCCC(C)Nc1ncc2c(=O)n([C@H]3CCN(C)C[C@@H]3F)cc([C@H]3CC[C@H](O)CC3)c2n1 (some centres unmarked) [Compound 199] | ≤ 100 | 1000 to 10000
9 | CCCC(C)Nc1ncc2c(=O)n([C@@H]3CCCN(C)C3)cc([C@H]3CC[C@H](O)CC3)c2n1 (some centres unmarked) [Compound 200] | ≤ 100 | 1000 to 10000
10 | CCCC(C)Nc1ncc2c(=O)n(C3CCN(C4COC4)CC3)cc([C@H]3CC[C@H](O)CC3)c2n1 (some centres unmarked) [Compound 201] | ≤ 100 | 1000 to 10000
11 | CC(Nc1ncc2c(OC3CCNCC3)ncc([C@H]3CC[C@H](O)CC3)c2n1)c1ccncc1 (some centres unmarked) [Compound 202] | ≤ 100 | 1000 to 10000
12 | CCCC(C)Nc1ncc2c(OC3CCNCC3)ncc([C@H]3CC[C@H](O)CC3)c2n1 (some centres unmarked) [Compound 203] | ≤ 100 | ≤ 100
13 | CCC[C@@H](C)Nc1ncc2c(OC3CCNCC3)ncc([C@H]3CC[C@@H](O)CC3)c2n1 [Compound 204] | 100 to 1000 | 100 to 1000
14 | O[C@H]1CC[C@H](c2cnc(OC3CCNCC3)c3cnc(Nc4cccc(Cl)c4)nc32)CC1 [Compound 205] | ≤ 100 | ≤ 100
15 | O[C@H]1CC[C@H](c2cnc(OC3CCNCC3)c3cnc(Nc4ccc(Cl)cc4)nc32)CC1 [Compound 206] | ≤ 100 | ≤ 100
16 | CCc1cccc(Nc2ncc3c(OC4CCNCC4)ncc([C@H]4CC[C@H](O)CC4)c3n2)c1 [Compound 207] | 100 to 1000 | 100 to 1000
17 | CCC[C@@H](C)Nc1ncc2c(OC3CCN(C)CC3)ncc([C@H]3CC[C@H](O)CC3)c2n1 [Compound 208] | 100 to 1000 | 100 to 1000
18 | Cc1ccc(Cl)cc1Nc1ncc2c(OC3CCNCC3)ncc([C@H]3CC[C@H](O)CC3)c2n1 [Compound 209] | ≤ 100 | 100 to 1000
19 | O[C@H]1CC[C@H](c2cnc(OC3CCNCC3)c3cnc(Nc4ccccc4)nc32)CC1 [Compound 210] | ≤ 100 | ≤ 100
